Measured values published in patent US9809589B2, “Crystal form of compound used as mineralocorticoid receptor antagonist and preparation method therefor” (KBP BIOSCIENCES CO., LTD., priority 2012, dated 2017).
“Also recorded” adds a separate entry of the source. Each block holds one compound with its values, some of them ahead of it.

Tests used:
[1] = Assay 1: stability (influencing factor tests) for Crystal Form I; HPLC content; format: physicochemical
Experimental: Assay 1: Stability for Crystal Form I of the Present Compound
Crystal Form I of the compound represented by formula (1): Crystal Form I was prepared according to Example 2.
(§1) (1) Crystal Form I of the compound represented by formula (1) was laid on a dry and clean watch glass, and kept at 60° C. for 10 days. Samples were taken respectively on Day 5 and Day 10. The contents of the relevant substance and the compound represented by formula (1) in the sample were measured, and compared with the contents of those in the sample taken on Day 0;
(§2) (2) Crystal Form I of the compound represented by formula (1) was packaged and sealed with a low-density polyethylene bag for pharmaceutical use in the inner layer and with a polyester/aluminum/polyethylene composite film for pharmaceutical package in the outer layer, and kept at 60° C. for 10 days. Samples were taken respectively on Day 5 and Day 10. The contents of the relevant substance and the compound represented by formula (1) in the sample were measured, and compared with the contents of those in the sample taken on Day 0.
as §1, with “High humidity test: Crystal” for “(1) Crystal”, “at 25°” for “at 60°”, “C. under a relative humidity of 90%±5%” for “C.”, “Day 0.” for “Day 0;”
as §1, with “Photostability test: Crystal” for “(1) Crystal”, “at an illuminance of 4500 L×±500 L× in an illumination box” for “at 60° C.”, “Day 0.” for “Day 0;”
(§3) The content of the compound represented by formula (1) was measured by using an external standard method in accordance with the High Performance Liquid Chromatography in Chinese Pharmacopoeia, Appendix V D, Edition 2010.
(§4) The content of the relevant substance was measured by using an area normalization method in accordance with the High Performance Liquid Chromatography in Chinese Pharmacopoeia, Appendix V D, Edition 2010.

[2] = test system: high salt induced Dahl salt sensitive (Dahl/SS) rats; experiment: Assay 3: depressurization effect (SBP, tail-cuff) in hypertension and kidney injury Dahl/ss rat model; format: in vivo; settings: for SBP Before Administration (mean ± SD): baseline, solid dispersion with PVPK30 1:8, oral gavage twice a day; for SBP After Administration (on 41th day) (mean ± SD): oral gavage twice a day, 4% NaCl chow, solid dispersion with PVPK30 1:8
Experimental: (§5) Organ protection and depressurization effect of Crystal Form I of the present invention on the high salt induced Dahl salt sensitive (Dahl/SS) rats
(§6) The solid dispersion of Crystal Form I of the present invention (Crystal Form I of the present invention: PVPK30=1:8 (w/w)): the solid dispersion of Crystal Form I of the present invention was formulated with a suitable amount of sterile water for injection into suspensions having concentrations of 0.03, 0.10, 0.30, and 1.00 mg/mL. The suspension was prepared before use every day.
(§7) Experiment animals: male Dahl/ss rats of SPF (specific pathogen free)-grade, 8-9 weeks, purchased via Vital River Laboratories from HARLAN LABORATORIES, INC. After one week normal quarantine, rats in good sign and condition were used in the experiment.
(§8) Dahl/ss rats were randomly divided into six groups according to the blood pressure measurement before administration:
(§9) The in vivo pharmacodynamic activity of Crystal Form I of the present invention was evaluated by the hypertension and kidney injury Dahl/ss rat's model.
(§10) One week before the experiment, the blood pressures of rats were monitored twice by the tail-cuff blood pressure measurement so that the rats could accommodate the blood pressure monitoring operation. The blood pressures of rats were monitored once before starting the experiment and used as the basic blood pressures before administration. The rats were randomly divided into groups according to the measured blood pressures before administration. The model was established by feeding the rats with a high salt chow (AIN-93G experiment animal feed containing 4% NaCl) for 42 days, in which the rats were freely accessible to food and water. And rats in control group were fed with a low-sodium chow.
(§11) The rats in the treatment groups with Crystal Form I of the present invention were respectively administrated with Crystal Form I of the present invention in a dosage of 0.3, 1, 3, and 10 mg/kg/day. Rats in treatment groups were dosed orally via gavage twice a day by 5 mL/kg. The rats in the model group and in the normal control were administrated with the same volume of sterile water for injection.
Blood pressure (systolic blood pressure, abbreviated as SBP) measurement: The blood pressure was measured once each week for six weeks. The blood pressure changes were analyzed for each group.

[3] = test system: high salt induced Dahl salt sensitive (Dahl/SS) rats; experiment: Assay 3: pathological examinations for kidney and heart (organ protection) in Dahl/ss rat model; format: in vivo; settings: for left ventricular wall thickness (mean ± SD) / Kidney injury scores (Mean ± SD): 42 days high salt chow; for Kidney injury scores (Mean ± SD): HE stain
Experimental: as §5, §6, §7, §8, §9, §10, §11
The pathological examinations for kidney and heart: After the experiment, the rats were killed in a painless manner. The heart and the bilateral kidneys were collected for histopathology analysis. Kidney injury was scored and semi-quantitatively analyzed based on hematoxylin-eosin (HE) stain. The heart injury was analyzed by the measurement of left ventricular wall thickness.

[4] = Assay 2: stability (influencing factor tests) for Crystal Form II; HPLC content; format: physicochemical
Experimental: Stability for Crystal Form II of the present compound
Crystal Form II of the compound represented by formula (1): Crystal Form II was prepared according to Example 4.
as §1, with “II” for “I”, “Sample was” for “Samples were”, “taken” for “taken respectively”, “on” for “on Day 5 and”
as §2, with “II” for “I”, “Sample was” for “Samples were”, “taken” for “taken respectively”, “on” for “on Day 5 and”
(§12) High humidity test: Crystal Form II of the compound represented by formula (1) was laid on a dry and clean watch glass, and kept at 25° C. under a relative humidity of 90%±5% for 10 days. Sample was taken respectively on Day 10. The contents of the relevant substance and the compound represented by formula (1) in the sample were measured, and compared with the contents of those in the sample taken on Day 0.
as §12, with “Photostability” for “High humidity”, “an illuminance” for “25° C. under a relative humidity”, “5000 L×±500 L× in an illumination box” for “90%±5%”, “taken” for “taken respectively”
as §3, §4

[5] = 60° C.-(1), open watch glass, Day 5
[6] = 60° C.-(1), open watch glass, Day 10
[7] = 60° C.-(2), packaged and sealed, Day 5
[8] = 60° C.-(2), packaged and sealed, Day 10
[9] = high temperature, high humidity, illumination

- Content of the compound represented by formula (1) [1, 5]: 98.9%
- Content of the relevant substance [1, 5]: 0.82%
- Content of the compound represented by formula (1) [1, 6]: 98.1%
- Content of the relevant substance [1, 6]: 0.97%
- Content of the compound represented by formula (1) [1, 7]: 99.7%
- Content of the relevant substance [1, 7]: 0.58%
- Content of the compound represented by formula (1) [1, 8]: 99.0%
- Content of the relevant substance [1, 8]: 0.60%
- Content of the compound represented by formula (1) ([1]; 4500 Lx ± 500 Lx, Day 5): 98.1%
- Content of the relevant substance ([1]; 4500 Lx ± 500 Lx, Day 5): 1.2%
- Content of the compound represented by formula (1) ([1]; 4500 Lx ± 500 Lx, Day 10): 97.0%
- Content of the relevant substance ([1]; 4500 Lx ± 500 Lx, Day 10): 2.0%
- Content of the compound represented by formula (1) ([1]; Day 0): 99.5%
- Content of the relevant substance ([1]; Day 0): 0.54%
- Content of the compound represented by formula (1) ([1]; RH90% ± 5%, 25° C., Day 5): 99.1%
- Content of the relevant substance ([1]; RH90% ± 5%, 25° C., Day 5): 0.56%
- Content of the compound represented by formula (1) ([1]; RH90% ± 5%, 25° C., Day 10): 99.0%
- Content of the relevant substance ([1]; RH90% ± 5%, 25° C., Day 10): 0.56%
- Change of contents of the relevant substance and the compound represented by formula (1) [1, 9]: substantially did not change
SMILES: N#Cc1ccc(N2N=C3c4ccc(C(=O)N5CCC(O)CC5)nc4CC[C@@H]3[C@@H]2C2CCCC2)cc1Cl [Crystal Form I, 2-chloro-4-[(3S,3aR)-3-cyclopentyl-7-(4-hydroxypiperidin-1-carbonyl)-3,3a,4,5-tetrahydro-2H-pyrazolo[3,4-f]quinolin-2-yl]benzonitrile]
- Stability compared with the amorphous form [1]: superior to the amorphous form in the stability
- SBP Before Administration (mean ± SD) ([2]; 0.3 mg/kg/day group): 140.8 ± 9.6 mmHg
- SBP After Administration (on 41th day) (mean ± SD) ([2]; 0.3 mg/kg/day): 166.5 ± 10.2 mmHg
- SBP Before Administration (mean ± SD) ([2]; 1 mg/kg/day group): 140.9 ± 9.5 mmHg
- SBP After Administration (on 41th day) (mean ± SD) ([2]; 1 mg/kg/day): 148.7 ± 9.6 mmHg
- SBP Before Administration (mean ± SD) ([2]; 3 mg/kg/day group): 141.0 ± 9.4 mmHg
- SBP After Administration (on 41th day) (mean ± SD) ([2]; 3 mg/kg/day): 141.6 ± 8.0 mmHg
- SBP Before Administration (mean ± SD) ([2]; 10 mg/kg/day group): 141.2 ± 9.2 mmHg
- SBP After Administration (on 41th day) (mean ± SD) ([2]; 10 mg/kg/day): 141.2 ± 9.6 mmHg
- Depressurization effect ([2]; 0.3-10 mg/kg/day oral, high salt Dahl/ss rats, listed as Crystal Form I of the present invention): significant depressurization effect; also recorded: remarkable depressurization effect
- left ventricular wall thickness (mean ± SD) ([3]; 0.3 mg/kg/day oral): 0.392 ± 0.024 cm
- Kidney injury scores (Mean ± SD) ([3]; 0.3 mg/kg/day oral): 2.02 ± 0.268
- left ventricular wall thickness (mean ± SD) ([3]; 1 mg/kg/day oral): 0.383 ± 0.017 cm
- Kidney injury scores (Mean ± SD) ([3]; 1 mg/kg/day oral): 1.25 ± 0.428
- left ventricular wall thickness (mean ± SD) ([3]; 3 mg/kg/day oral): 0.381 ± 0.026 cm
- Kidney injury scores (Mean ± SD) ([3]; 3 mg/kg/day oral): 1.84 ± 0.596
- left ventricular wall thickness (mean ± SD) ([3]; 10 mg/kg/day oral): 0.383 ± 0.019 cm
- Kidney injury scores (Mean ± SD) ([3]; 10 mg/kg/day oral): 1.71 ± 0.719
- Heart protection (left ventricular wall thickness) ([3]; compared with the model group): significantly decreased the left ventricular wall thickness
- Kidney protection (kidney injury score) ([3]; treatment groups vs model group, listed as Crystal Form I of the present invention): remarkable prevention from the increase in the kidney injury score; also recorded: kidney injury protection

- Content of the compound represented by formula (1) [4, 6]: 96.2%
- Content of the relevant substance [4, 6]: 2.8%
- Content of the compound represented by formula (1) [4, 8]: 97.1%
- Content of the relevant substance [4, 8]: 2.7%
- Content of the compound represented by formula (1) ([4]; 5000 Lx ± 500 Lx, Day 10): 95.5%
- Content of the relevant substance ([4]; 5000 Lx ± 500 Lx, Day 10): 2.8%
- Content of the compound represented by formula (1) ([4]; Day 0): 96.2%
- Content of the relevant substance ([4]; Day 0): 2.6%
- Content of the compound represented by formula (1) ([4]; RH90% ± 5%, 25° C., Day 10): 96.9%
- Content of the relevant substance ([4]; RH90% ± 5%, 25° C., Day 10): 2.6%
- Change of contents of the relevant substance and the compound represented by formula (1) [4, 9]: substantially did not change
SMILES: N#Cc1ccc(N2N=C3c4ccc(C(=O)N5CCC(O)CC5)nc4CC[C@@H]3[C@@H]2C2CCCC2)cc1Cl [Crystal Form II, 2-chloro-4-[(3S,3aR)-3-cyclopentyl-7-(4-hydroxypiperidin-1-carbonyl)-3,3a,4,5-tetrahydro-2H-pyrazolo[3,4-f]quinolin-2-yl]benzonitrile]
- Stability compared with the amorphous form [4]: superior to the amorphous form in the stability
